Reference: patent US5885987A, “Phenylene derivatives” (Kowa Co., Ltd., priority 1996, dated 1999)
Where two headings read alike, the source gives them in different places.

Key:
LTD4 receptor = target: T1, LTD4 receptor (Cavia porcellus, UniProt Q2NNR5); test: LTD4 receptor binding inhibition test ([^3 H]leukotriene D4, guinea pig pulmomembranous protein); conditions: for inhibition at 100 µM: a: 100 μM; for inhibition at 100 µM / inhibition at 10 µM: read-out: LTD4 receptor (%), inhibition rate; for Kd: read-out: LTD4 receptor, dissociation constant KD; for inhibition at 10 µM: b: 10 μM
T1 construct: guinea pig pulmomembranous protein; from tissue; host or cells: guinea pig lung membranes
T1 sequence (Q2NNR5 1-340): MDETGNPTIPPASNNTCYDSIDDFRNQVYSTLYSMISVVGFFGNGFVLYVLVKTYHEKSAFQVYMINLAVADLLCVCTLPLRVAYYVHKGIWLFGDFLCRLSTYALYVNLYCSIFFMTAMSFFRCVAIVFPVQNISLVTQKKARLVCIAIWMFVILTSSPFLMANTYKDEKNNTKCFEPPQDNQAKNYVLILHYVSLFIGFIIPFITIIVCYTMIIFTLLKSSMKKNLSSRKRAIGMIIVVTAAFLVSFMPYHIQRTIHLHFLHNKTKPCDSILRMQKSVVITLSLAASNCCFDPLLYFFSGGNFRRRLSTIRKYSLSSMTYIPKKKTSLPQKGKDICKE
Procedure: 2) LTD4 Receptor Binding Inhibition Test
An ice-cooled tris hydrochloride/sodium chloride buffer (10 mM/100 mM, pH 7.5) was added to terminate the reaction, followed by immediate filtration through a Wattman CF/C filter. The filter was washed twice with 20 ml aliguots of the ice-cooled buffer. The radioactivity of the residue was measured by a liquid scintillation counter. […] In a binding assay, 2 μM leukotriene D4 was used for the measurement of a nonspecific binding.

H1 receptor = target: T2, H1 receptor (Cavia porcellus, UniProt P31389); test: H1 receptor binding inhibition test ([^3 H]mepyramin, guinea pig cerebromembranous protein); conditions: for inhibition at 100 µM / inhibition at 10 µM: read-out: H1 receptor (%), inhibition rate; for Kd: read-out: H1 receptor, dissociation constant KD; for inhibition at 10 µM: b: 10 μM
T2 construct: guinea pig cerebromembranous protein; from tissue; host or cells: guinea pig cerebral (brain) membranes
T2 sequence (P31389 whole entry): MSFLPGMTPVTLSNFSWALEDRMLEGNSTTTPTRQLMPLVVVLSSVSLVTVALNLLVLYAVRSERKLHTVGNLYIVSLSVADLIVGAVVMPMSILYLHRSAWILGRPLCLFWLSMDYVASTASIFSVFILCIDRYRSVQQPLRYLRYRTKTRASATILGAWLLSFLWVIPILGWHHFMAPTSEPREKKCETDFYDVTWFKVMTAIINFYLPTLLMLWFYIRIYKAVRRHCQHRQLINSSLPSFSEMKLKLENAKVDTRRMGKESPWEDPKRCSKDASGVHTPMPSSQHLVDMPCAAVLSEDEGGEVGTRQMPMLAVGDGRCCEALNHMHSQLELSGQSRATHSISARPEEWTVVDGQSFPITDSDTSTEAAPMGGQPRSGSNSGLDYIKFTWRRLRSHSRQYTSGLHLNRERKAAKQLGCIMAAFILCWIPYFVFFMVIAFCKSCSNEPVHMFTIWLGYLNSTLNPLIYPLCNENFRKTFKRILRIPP
Procedure: 1) H1 Receptor Binding Inhibition Test
An ice-cooled phosphate buffer was added to terminate the reaction, followed by immediate filtration through a Wattman CF/C filter. The filter was washed twice with 20 ml aliquots of the ice-cooled buffer. The radioactivity of the residue was measured by a liquid scintillation counter. From a measurement value obtained without the addition of the test compound and measurements values obtained upon addition of the test compound at various concentrations, the dose-response of the inhibitory action of the test compound was measured and the 50% inhibitory concentration (IC50) was determined. Using the Cheng-Prusoff formula, a dissociation constant was calculated from the IC50. In a binding assay, 10^-4 M R(-)dimethindene was used for the measurement of a nonspecific binding.

Compound	inhibition at 100 µM (H1 receptor; a: 100 μM) [%]	Kd (LTD4 receptor) [nM]	Kd (H1 receptor) [nM]	also measured
O=C1CCc2ccc(OCc3cccc(OCc4ncc5ccccc5n4)c3)cc2N1 [Example 34, 7-[3-(2-quinazolinylmethoxy)benzyloxy]-1,2,3,4-tetrahydroquinolin-2-one]	–	196	100000	–
O=C1CCSc2cc(OCc3cccc(OCc4ccc5ccccc5n4)c3)ccc2N1 [Example 11, 8-[3-(2-Quinolinylmethoxy)benzyloxy]-2,3,4,5-tetrahydro-1,5-benzothiazepin-4-one]	47	22	–	–
CCCCCCc1cc(OCc2ccc(OCc3ccc4ccccc4n3)cc2)cc2c1C(C)(C)C(=O)N2 [Example 29, 3,3-Dimethyl-4-(n-hexyl)-6-(4-(2-quinolinylmethoxy)benzyloxy]-2,3-dihydro-1H-indol-2-one]	34	3100	–	–
O=C1CCc2cc(OCc3ccc(OCc4ccc5ccccc5n4)cc3)ccc2N1 [Example 22]	45	1240	–	–
O=C1CCc2ccc(OCc3ccc(OCc4ccc5ccccc5n4)cc3)cc2N1 [Example 23]	41	500	–	–
O=C1CCCc2cc(OCc3cccc(OCc4ccc5ccccc5n4)c3)ccc2N1 [Example 9, 7-[3-(2-Quinolinylmethoxy)benzyloxy]-2,3,4,5-tetrahydrobenz[b]azepin-2-one]	–	148	47600	–
O=C1CSc2cc(OCc3cccc(OCc4ccc5ccc(Cl)cc5n4)c3)ccc2N1 [Example 32, 7-[3-(7-chloro-2-quinolinylmethoxy)benzyloxy]-3,4-dihydro-2H-1,4-benzothiazin-3-one]	43	109	–	–
Cc1ccc(OCc2cccc(OCc3ccc4ccccc4n3)c2)c2c1NC(=O)CC2 [Example 5, 8-Methyl-5-[3-(2-quinolinylmethoxy)benzyloxy]-1,2,3,4-tetrahydroquinolin-2-one]	57	316	–	–
O=C1Cc2c(cccc2OCc2cccc(OCc3ccc4ccccc4n3)c2)N1 [Example 12, 4-[3-(2-Quinolinylmethoxy)benzyloxy)-2,3-dihydro-1H-indol-2-one]	–	703	–	H1 receptor (%), inhibition rate (H1 receptor; concentration not given): 45%
Cc1ccc(OCc2ccc(OCc3ccc4ccccc4n3)cc2)c2c1NC(=O)CC2 [Example 21, 8-Methyl-5-[4-(2-quinolinylmethoxy)benzyloxy]-1,2,3,4-tetrahydroquinolin-2-one]	28	–	–	inhibition at 10 µM (LTD4 receptor): 33%
7-[3-(2-Quinolinylmethoxy)benzyloxy]-3,4-dihydro-2H-1,4-benzothiazin-3-one 1,1-dioxide [Example 77]	–	–	–	Kd (LTD4 receptor; 0.2 nM [^3 H]leukotriene D4, pH 7.5, 22° C., 30 minutes, calculated from IC50): 129 nM; H1 receptor (%), inhibition rate (H1 receptor; a: 100 μM): 30%
CN(Cc1cccc(OCc2ccc3ccccc3n2)c1)c1ccc2c(c1)SCC(=O)N2 [96(a), 7-[N-methyl-N-{3-(2-quinolinylmethoxy)benzyl}amino]-3,4-dihydro-2H-1,4-benzothiazin-3-one]	–	–	–	inhibition at 10 µM (LTD4 receptor): 9%; inhibition at 10 µM (H1 receptor): 4%
O=C1CCc2cccc(OCc3cccc(OCc4ccc5ccccc5n4)c3)c2N1 [Example 8, 8-[3-(2-Quinolinylmethoxy)benzyloxy]-1,2,3,4-tetrahydroquinolin-2-one]	–	322	145000	–
O=C1CCCc2cc(OCc3ccc(OCc4ccc5ccccc5n4)cc3)ccc2N1 [Example 25, 7-[4-(2-Quinolinylmethoxy)benzyloxy]-2,3,4,5-tetrahydro-1H-benzo[b]azepin-2-one]	–	129	57800	–
O=C1CCc2ccc(OCc3cccc(OCc4ccc5ccccc5n4)c3)cc2N1 [Example 7]	46	209	–	–

Now from value to compound, other results behind:

inhibition at 100 µM (H1 receptor; a: 100 μM) [%]	Kd (LTD4 receptor) [nM]	Kd (H1 receptor) [nM]	Compound	also measured
28	–	–	O=C1CSc2c(cccc2NC(=O)c2ccc(OCc3ccc4ccccc4n3)cc2)N1 [Example 71, 8-[4-(2-Quinolinylmethoxy)benzoylamino]-3,4-dihydro-2H-1,4-benzothiazin-3-one]	inhibition at 100 µM (LTD4 receptor): 0%
28	428	–	CC1(C)C(=O)Nc2cc(OC(=O)c3ccc(OCc4ccc5ccccc5n4)cc3)ccc21 [Example 68, 3,3-Dimethyl-6-(4-(2-quinolinylmethoxy)benzoyloxy]-2,3-dihydro-1H-indol-2-one]	–
–	6300	8670	CCOCCn1c(COc2cccc(COc3ccc4c(c3)SCC(=O)N4)c2)nc2ccccc21 [Example 44, 7-[3-(N-ethoxylethylbenzimidazol-2-yl-methoxy)benzyloxy]-3,4-dihydro-2H-1,4-benzothiazin-3-one]	–
–	92.8	–	O=C1NCCCc2cc(OCc3cccc(OCc4ncc5ccccc5n4)c3)ccc21 [Example 86, 7-[3-(2-quinazolinylmethoxy)benzyloxy]-2,3,4,5-tetrahydro-1H-benz[c]azepin-1-one]	inhibition at 10 µM (H1 receptor): 9%
38	16	–	Cc1ccc(OC(=O)c2cccc(OCc3ccc4ccccc4n3)c2)c2cc(C#N)c(=O)[nH]c12 [Example 53, 3-cyano-8-methyl-5-[3-(2-quinolinylmethoxy)benzoyloxy]-1,2-dihydroquinolin-2-one]	–
–	315	–	O=C1CSc2cc(NCc3cccc(OCc4ccc5ccccc5n4)c3)ccc2N1 [Example 94, 7-[3-(2-quinolinylmethoxy)benzylamino]-3,4-dihydro-2H-1,4-benzothiazin-3-one]	inhibition at 10 µM (H1 receptor): 37%
–	26	66400	O=C1NCCCc2cc(OCc3cccc(OCc4ccc5ccccc5n4)c3)ccc21 [Example 84, 7-[3-(2-quinolinylmethoxy)benzyloxy]-2,3,4,5-tetrahydro-1H-benz[c]azepin-1-one]	–
37	–	–	CC1(C)C(=O)Nc2ccc(OC(=O)c3cccc(OCc4ccc5ccccc5n4)c3)cc21 [Example 59, 3,3-Dimethyl-5-[3-(2-quinolinylmethoxy)benzoyloxy]-2,3-dihydro-1H-indol-2-one]	inhibition at 100 µM (LTD4 receptor): 53%
–	–	128000	O=C1CCc2ccc(OCc3cccc(OCc4nc5ccccc5s4)c3)cc2N1 [Example 41, 7-[3-(2-benzothiazolylmethoxy)benzyloxy]-1,2,3,4-tetrahydroquinolin-2-one]	inhibition at 10 µM (LTD4 receptor): 34%
–	–	120	O=C1CSc2cc(N=Cc3ccc(OCc4ccc5ccccc5n4)cc3)ccc2N1 [Example 92, 7-[4-(2-quinolinylmethoxy)benzylidenamino]-3,4-dihydro-2H-1,4-benzothiazin-3-one]	inhibition at 10 µM (LTD4 receptor): 0%
43	–	–	Cn1c(COc2cccc(COc3ccc4c(c3)S(=O)(=O)CC(=O)N4)c2)nc2ccccc21 [Example 79, 7-[3-(N-Methylbenzimidazol-2-yl-methoxy)benzyloxy]-3,4-dihydro-2H-1,4-benzothiazin-3-one 1,1-dioxide]	inhibition at 10 µM (LTD4 receptor): 42%
–	115	53100	O=C1NCCCc2cc(OCc3ccc(OCc4ccc5ccccc5n4)cc3)ccc21 [Example 85, 7-[4-(2-quinolinylmethoxy)benzyloxy]-2,3,4,5-tetrahydro-1H-benz[c]azepin-1-one]	–
–	–	57900	O=C1CCCc2cc(OC(=O)c3cccc(OCc4ccc5ccccc5n4)c3)ccc2N1 [Example 57]	Ki (LTD4 receptor; read-out: LTD4 receptor, dissociation constant KD (converted)): 851 nM
–	5510	6060	CCOCCn1c(COc2cccc(COc3ccc(C)c4c3C(C)(C)C(=O)N4)c2)nc2ccccc21 [Example 43, 4-(3-(N-ethoxylethylbenzimidazol-2-yl-methoxy)benzyloxy)-3,3,7-trimethyl-2,3-dihydro-1H-indol-2-one]	–
–	–	120	O=C1CSc2cc(N=Cc3cccc(OCc4ccc5ccccc5n4)c3)ccc2N1 [Example 91, 7-[3-(2-quinolinylmethoxy)benzylidenamino]-3,4-dihydro-2H-1,4-benzothiazin-3-one]	inhibition at 10 µM (LTD4 receptor): 37%
–	–	122000	O=C1CCS(=O)(=O)c2cc(OCc3cccc(OCc4ccc5ccccc5n4)c3)ccc2N1 [Example 76]	inhibition at 100 µM (LTD4 receptor): 0%
40	–	–	CCOCCn1c(COc2ccc(COc3ccc(C)c4c3C(C)(C)C(=O)N4)cc2)nc2ccccc21 [Example 45, 4-[4-(N-ethoxylethylbenzimidazol-2-yl-methoxy)benzyloxy]-3,3,7-trimethyl-2,3-dihydro-1H-indol-2-one]	inhibition at 10 µM (LTD4 receptor): 32%
–	135	16200	Cn1c(COc2cccc(COc3ccc4c(c3)SCC(=O)N4)c2)nc2ccccc21 [Example 36, 7-(3-(N-methylbenzimidazo1-2-yl-methoxy)benzyloxy]-3,4-dihydro-2H-1,4-benzothiazin-3-one]	–
